Test results published in US20230104283A1, “JNK INHIBITOR, AND PHARMACEUTICAL COMPOSITION AND USE THEREOF” (WUHAN LL SCIENCE AND TECHNOLOGY DEVELOPMENT CO. , LTD, priority 2019, published 2023).
pIC50: −log10 of the molar value.

What was measured:
JNK1 kinase = biological target: T1, JNK1 kinase (Homo sapiens, UniProt P45983); assay: JNK1 activity screening (time-resolved fluorometric HTRF kinase assay); assay type: biochemical; details: enzymatic assay, activity level
T1 construct: purchased Carna Biosciences 04-163
Description: JNK1 activity screening. JNK1 activity was detected using a 96-well (Cisbio, 66PL96025) time-resolved fluorometric assay. The JNK1 assay was conducted in the following assay buffer: 10 mM MgCl2 (Sigma, M1028), 1 mM MnCl2 (Sigma, M1787), 1 mM DTT (Sigma, D0632) and 1× Enzymatic buffer/kinase (Cisbio, 62EZBFDC). By using the assay buffer, 3 μL of 0.1 ng/μL JNK1 kinase (Carna Biosciences, 04-163) was added to a 96-well microplate, and then 4 μL of a compound diluted appropriately (with a DMSO content of 2.5%) was added. The resulting mixture was incubated at room temperature for 0.5 h. To start the reaction, the assay buffer was used to mix 0.003 μM ATP (Aladdin, A7699) and 30 μM substrate ATF2-GST fusion (Cisbio, 64CUS000AFPEB), and 3 μL of the mixed solution was added to the microplate. The resulting mixture was incubated at room temperature for 2.5 h. HTRF detection buffer ([…], 62SDBRDD) was used then to prepare a mixture of 5 μg/mL MAb Anti GST-XL665 (Cisbio, 61GSTXLA) and 0.045 μg/mL PAb Anti-phospho ATF2-K (Cisbio, 61P12KAZ), and 10 μL of the mixture was added to the plate to terminate the reaction. After incubation for about 12 h, the plate was read on a Perkin-Elmer Envision reader.

[1] = tested on: RAW264.7 phosphorylated c-Jun (Ser63); assay: RAW264.7 phosphorylated c-Jun whole cell assay; assay type: cell-based; details: Mus musculus; cytological assay, activity level; lipopolysaccharide-activated RAW264.7 cells, phospho-c-Jun (Ser63) ELISA
Description: RAW264.7 (ATCC TIB-71) cells were purchased from BeNa Culture Collection and maintained in a high-glucose DMEM medium (Gibco) containing 10% fetal bovine serum (Gibco) and 1% penicillin-streptomycin (Gibco). All cells were cultured at 37° C. in 95% air and 5% CO2. All cells were seeded into 120 μL of cell culture medium in a 96-well plate at a density of 2×10^5 cells per well. The stock solution of compound (15 mM) was serially diluted in DMSO (Sigma) and further diluted in growth medium, and it was then added at 15 μL per well as a 10× concentrated solution, well mixed with the cells and incubated with the cells for 30 min. Concentration of the compound vehicle (DMSO) in each well was 0.2%. After incubation for 30 min, the cells were activated with […] lipopolysaccharide (Sigma). Lipopolysaccharide was added to the growth medium as a 10× concentrated solution at 15 μL per well. The cell plate was incubated for 1 h, and then all the medium was removed. The level of C-Jun protein with phosphorylation of serine at site 63 was measured using the whole cell lysate kit-phosphorylated C-Jun assay (PathScan® Phospho-c-Jun (Ser63) Sandwich ELISA Kit) (CST, 7145C) according to the manufacturer's instructions.

[2] = Stability observed during preparation; assay type: physicochemical; details: isolated compound; acid, base, water vapor
Description: (1R,3R,4R)-5-amino-2-methylcyclohexanol hydrochloride (57 mg, 0.342 mmol) and DIEA (132 mg, 1.026 mmol) were added to a solution of compound T041-3 (100 mg, 0.342 mmol) in isopropanol (3 mL) at room temperature with stirring. After stirring at room temperature for 3 h, the reaction was completed. The reaction mixture was added with water and extracted with ethyl acetate, and the organic phase was washed with saturated brine and dried over anhydrous sodium sulfate. The reaction mixture was concentrated under reduced pressure, purified by preparative high performance liquid chromatography (ammonium bicarbonate method) and lyophilized to give 40 mg of a white solid with a yield of 34%.

T1 sequence (P45983 whole entry): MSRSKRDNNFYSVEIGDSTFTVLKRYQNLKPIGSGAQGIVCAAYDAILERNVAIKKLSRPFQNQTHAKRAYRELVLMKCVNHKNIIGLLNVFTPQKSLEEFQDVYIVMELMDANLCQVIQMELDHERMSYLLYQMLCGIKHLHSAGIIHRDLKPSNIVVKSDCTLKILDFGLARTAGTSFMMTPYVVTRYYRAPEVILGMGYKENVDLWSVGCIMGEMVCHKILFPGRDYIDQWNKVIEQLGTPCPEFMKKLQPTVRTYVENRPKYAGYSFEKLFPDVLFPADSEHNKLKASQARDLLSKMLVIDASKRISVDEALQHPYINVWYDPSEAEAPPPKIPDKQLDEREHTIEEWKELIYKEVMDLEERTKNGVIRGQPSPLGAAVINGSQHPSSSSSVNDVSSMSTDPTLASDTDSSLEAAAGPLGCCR

SMILES	pIC50 (JNK1 kinase)	pIC50 [1]	stability of the compound [2]
C[C@@H]1CC[C@@H](Nc2nc(OC(C)(C)C)ncc2Br)C[C@H]1O [Compound T041, (1R,2R,5R)-5-((5-bromo-2-(tert-butoxy)pyrimidin-4-yl)amino)-2-methylcyclohexan-l-ol]	6.00 to 6.30	< 6.00	unstable due to susceptibility to acid, base, water vapor and the like
C[C@@H]1CC[C@@H](Nc2cc(NC3CCCC3)ncc2C(N)=O)C[C@H]1O [Compound T056, 6-(cyclopentylamino)-4-(((1R,3R,4R)-3-hydroxy-4-methylcyclohexyl)amino) nicotinamide]	6.00 to 6.30	< 6.00	–
C[C@@H]1CC[C@@H](Nc2cc(NC(C)(C)F)ncc2C(N)=O)C[C@H]1O [Compound T057, 6-((2-fluoropropan-2-yl)amino)-4-(((1R, 3R,4R)-3-hydroxy-4-methylcyclohexyl)amino)nicotinamide]	< 6.00	< 6.00	–
C[C@@H]1CC[C@@H](Nc2cc(NC3CC3)ncc2C(N)=O)C[C@H]1O [Compound T058, 6-(cyclopropylamino)-4-(((1R,3R,4R)-3-hydroxy-4-methylcyclohexyl)amino) nicotinamide]	< 6.00	< 6.00	–
C[C@@H]1CC[C@@H](Nc2cc(NC3CC3O)ncc2C(N)=O)C[C@H]1O (stereo partly drawn) [Compound T059, 4-(((1R,3R,4R)-3-hydroxy-4-methylcyclohexyl)amino)-6-((2-hydroxycyclopropyl)amino)nicotinamide]	< 6.00	< 6.00	–
C[C@@H]1CC[C@@H](Nc2cc(NC3C4C[C@H]43)ncc2C(N)=O)C[C@H]1O (stereo partly drawn) [Compound T060, 6-(((1R,2R)-bicyclo[1 1.0]butan-2-yl)amino)-4-(((1R,3R,4R)-3-hydroxy-4-methylcyclohexyl)amino)nicotinamide]	< 6.00	< 6.00	–
C[C@@H]1CC[C@@H](Nc2nc(NC(C)(C)C)ncc2[N+](=O)[O-])C[C@H]1O [Compound T062, (1R,2R,5R)-5-((2-(tert-butylamino)-5-nitropyrimidin-4-yl)amino)-2-methylcyclohex-1-ol]	< 6.00	< 6.00	–
C[C@@H]1CC[C@@H](Nc2nc(NC(C)(C)C)ncc2N)C[C@H]1O [Compound T063, (1R,2R,5R)-5-((5-amino-2-(tert-butylamino)pyrimidin-4-yl)amino)-2-methylcyclohexan-1-ol]	< 6.00	< 6.00	–
C#Cc1cnc(NC(C)(C)C)nc1N[C@@H]1CC[C@@H](C)[C@H](O)C1 [Compound T064, (1R,2R,5R)-5-((2-(ter-butylamino)-5-ethynylpyrimidin-4-yl)amino)-2-methylcyclohex-1-ol]	6.00 to 6.30	< 6.00	–
CC#Cc1cnc(NC(C)(C)C)nc1N[C@@H]1CC[C@@H](C)[C@H](O)C1 [Compound T065, (1R,2R,5R)-5-((2-(tert-butylamino)-5-(prop-1-yn-1-yl)pyrimidin-4-yl)amino)-2-methylcyclohexan-1-ol]	< 6.00	< 6.00	–
C=Cc1cnc(NC(C)(C)C)nc1N[C@@H]1CC[C@@H](C)[C@H](O)C1 [Compound T066, (1R,2R,5R)-5-((2-(tert-butylamino)-5-vinylpyrimidin-4-yl)amino)-2-methylcyclohex-1-ol]	< 6.00	< 6.00	–
CC(=O)c1cnc(NC(C)(C)C)nc1N[C@@H]1CC[C@@H](C)[C@H](O)C1 [Compound T067, 1-(2-(tert-butylamino)-4-(((1R,3R,4R)-3-hydroxy-4-methylcyclohexyl)amino)pyrimidin-5-yl)ethan-1-one]	6.30 to 7.00	6.30 to 7.00	–
C[C@@H]1CC[C@@H](Nc2nc(NC(C)(C)C)ncc2C(=O)C2CC2)C[C@H]1O [Compound T068, (2-(tert-butylamino)-4-(((1R,3R,4R)-3-hydroxy-4-methylcyclohexyl)amino)pyrimidin-5-yl)(cyclopropyl)methanone]	6.30 to 7.00	6.30 to 7.00	–
CCC(=O)c1cnc(NC(C)(C)C)nc1N[C@@H]1CC[C@@H](C)[C@H](O)C1 [Compound T069, 1-(2-(tert-butylamino)-4-(((1R,3R,4R)-3-hydroxy-4-methylcyclohexyl)amino)pyrimidin-5-yl)propan-1-one]	6.30 to 7.00	6.30 to 7.00	–
CC(C)C(=O)c1cnc(NC(C)(C)C)nc1N[C@@H]1CC[C@@H](C)[C@H](O)C1 [Compound T070, 1-(2-(tert-butylamino)-4-(((1R,3R,4R)-3-hydroxy-4-methylcyclohexyl)amino)pyrimidin-5-yl)-2-methylpropan-1-one]	6.00 to 6.30	< 6.00	–
CC(=O)c1cnc(NC(C)(C)C(F)(F)F)nc1N[C@@H]1CC[C@@H](C)[C@H](O)C1 [Compound T071, 1-(4-(((1R,3R,4R)-3-hydroxy-4-methylcyclohexyl)amino)-2-((1,1,1-trifluoro-2-methylpropan-2-yl)amino)pyrimidin-5-yl)ethan-1-one]	6.00 to 6.30	< 6.00	–
C[C@@H]1CC[C@@H](Nc2nc(Nc3ccc(S(C)(=O)=O)cc3)ncc2C(N)=O)C[C@H]1O [Compound T072, 4-(((1R,3R,4R)-3-hydroxy-4-methylcyclohexyl)amino)-2-((4-(methylsulfonyl)phenyl)amino) pyrimidine-5-carboxamide]	> 7.00	> 7.00	–
C[C@@H]1CC[C@@H](Nc2nc(Nc3ccc(N4CCN(C)CC4)cc3)ncc2C(N)=O)C[C@H]1O [Compound T073, 4-(((1R,3R,4R)-3-hydroxy-4-methylcyclohexyl)amino)-2-((4-(4-methylpiperazin-1-yl)phenyl)amino)pyrimidine-5-carboxamide]	> 7.00	6.30 to 7.00	–
COc1ccc(CNc2ncc(C(N)=O)c(N[C@@H]3CC[C@@H](C)[C@H](O)C3)n2)cc1 [Compound T074, 4-(((1R,3R,4R)-3-hydroxy-4-methylcyclohexyl)amino)-2-((4-methoxybenzyl)amino)pyrimidine-5-carboxamide]	> 7.00	> 7.00	–
